According to PMC3118479 (Bioorganic & medicinal chemistry, 2011):

Columns and labels:
human D2(long) = human D2(long) (Homo sapiens, UniProt P14416); test: Competitive radioligand binding at D2 dopamine receptor with 125I-IABN; details: for D3:D2: Ki for D3 receptors/Ki for D2 receptors; for D4:D2: Ki for D4 receptors/Ki for D2 receptors
human D3 = human D3 (Homo sapiens, UniProt P35462); test: Competitive radioligand binding at D3 dopamine receptor with 125I-IABN; details: relative to aripiprazole
human D4 = target: T1, human D4 (Homo sapiens, UniProt P21917); assay type: binding; details: human D4 expressed in HEK cells, [125I]ABN radioligand; mean ± SEM, at least three experiments
T1 sequence (P21917 1-419): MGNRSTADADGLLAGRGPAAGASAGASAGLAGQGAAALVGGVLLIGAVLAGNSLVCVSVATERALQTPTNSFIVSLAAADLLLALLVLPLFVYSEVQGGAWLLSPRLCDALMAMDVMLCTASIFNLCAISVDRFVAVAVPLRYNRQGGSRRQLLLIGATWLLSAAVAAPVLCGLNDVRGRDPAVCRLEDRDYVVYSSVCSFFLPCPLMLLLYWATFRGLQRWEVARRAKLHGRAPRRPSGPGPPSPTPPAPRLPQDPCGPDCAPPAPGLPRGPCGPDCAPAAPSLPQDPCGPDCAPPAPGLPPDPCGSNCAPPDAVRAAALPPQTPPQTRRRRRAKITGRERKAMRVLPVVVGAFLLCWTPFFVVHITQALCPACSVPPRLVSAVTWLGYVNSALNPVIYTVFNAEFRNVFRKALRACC

human D2 receptors = human D2 receptors (Homo sapiens, UniProt P14416); test: Whole cell forskolin-dependent adenylyl cyclase inhibition assay, D2L HEK cells; assay type: cell-based
Sequence of human D2 receptors (P14416 whole entry): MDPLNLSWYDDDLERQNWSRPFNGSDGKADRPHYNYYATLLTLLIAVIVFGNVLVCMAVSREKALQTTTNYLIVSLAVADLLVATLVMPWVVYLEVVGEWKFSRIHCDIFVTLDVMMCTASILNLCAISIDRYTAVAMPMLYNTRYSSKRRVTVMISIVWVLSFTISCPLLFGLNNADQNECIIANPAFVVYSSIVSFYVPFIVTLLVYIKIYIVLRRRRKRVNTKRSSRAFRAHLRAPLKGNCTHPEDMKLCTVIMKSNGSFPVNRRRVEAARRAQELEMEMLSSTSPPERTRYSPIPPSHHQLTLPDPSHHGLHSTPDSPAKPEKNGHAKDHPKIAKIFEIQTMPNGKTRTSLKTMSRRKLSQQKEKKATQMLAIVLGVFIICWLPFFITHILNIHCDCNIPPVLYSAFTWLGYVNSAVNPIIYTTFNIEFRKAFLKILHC

Sequence of human D2(long) (P14416 whole entry): as above
Sequence of human D3 (P35462 whole entry): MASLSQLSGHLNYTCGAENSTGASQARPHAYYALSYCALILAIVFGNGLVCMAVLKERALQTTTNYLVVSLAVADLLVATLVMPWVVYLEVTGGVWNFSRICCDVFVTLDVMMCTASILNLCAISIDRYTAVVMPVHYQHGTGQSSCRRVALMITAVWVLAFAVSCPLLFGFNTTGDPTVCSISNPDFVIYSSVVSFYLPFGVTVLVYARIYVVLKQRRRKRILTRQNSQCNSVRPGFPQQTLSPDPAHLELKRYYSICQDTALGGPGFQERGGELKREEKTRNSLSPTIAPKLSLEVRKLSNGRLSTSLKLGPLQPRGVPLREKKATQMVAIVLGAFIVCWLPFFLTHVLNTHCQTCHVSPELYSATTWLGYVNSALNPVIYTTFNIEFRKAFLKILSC

Compound	D3:D2 (human D2(long))	D4:D2 (human D2(long))	increase in affinity at D2 receptors (human D2(long); relative to aripiprazole)	decrease in affinity at D3 receptors (human D3)	Ki D4 (human D4)	intrinsic efficacy greater at D2 receptors compared to D3 receptors (human D2 receptors)
O=C(O)C(=O)O.O=C1CCc2ccc(OCCCCN3CCC(n4c(=O)[nH]c5ccccc54)CC3)cc2N1 [Compound 3, 7-(4-(4-(2-Oxo-2,3-dihydro-1H-benzo[d]imidazol-1-yl)-piperidin-1-yl)butoxy)-3,4-dihydroquinolin-2(1H)-one oxalate]	6.1	7.1				
O=C(O)C(=O)O.O=C1CCc2ccc(OCCCCN3CCC(n4c(=O)[nH]c5cc(Cl)ccc54)CC3)cc2N1 [Compound 4, 7-(4-(4-(5-Chloro-2-oxo-2,3-dihydro-1H-benzo[d]imidazol-1-yl)piperidin-1-yl)butoxy)-3,4-dihydroquinolin-2(1H)-one oxalate]	1.9	4.4				
CN1CN(c2ccccc2)C2(CCN(CCCCOc3ccc4c(c3)NC(=O)CC4)CC2)C1=O.O=C(O)C(=O)O [Compound 5, 7-(4-(3Methyl-4-oxo-1-phenyl-1,3,8-triazaspiro[4.5]decan-8-yl)butoxy)-3,4-dihydro-quinolin-2(1H)-one oxalate]	0.7	1.4				
O=C(O)C(=O)O.O=C1CCc2ccc(OCCCCN3CCN(c4ccccc4OCCF)CC3)cc2N1 [Compound 7, 7-(4-(4-(2-(2-Fluoroethoxy)phenyl)piperazin-1-yl)butoxy)-3,4-dihydroquinolin-2(1H)-one oxalate]			12 fold	2 fold	low affinity	16–75%
